Measurements reported in patent US8735322B2, “Herbicides” (Syngenta Limited, priority 2008, dated 2014).

Columns and labels:
Format in all cases: in vivo
Lolium perenne (LOLPE) [1] = test: Example A post-emergence herbicidal activity, glasshouse pot test; conditions: 360 h, evaluated 15 days after spraying, read-out: herbicidal damage LOLPE (100=total damage to plant; 0=no damage to plant); for pest or weed control at 500 g/ha: rate 500 g/ha
Procedure: (§1) Seeds of a variety of test species were sown in standard soil in pots. After cultivation for one day (pre-emergence) or after 10 days cultivation (post-emergence) under controlled conditions in a glasshouse, the plants were sprayed with an aqueous spray solution derived from the formulation of the technical active ingredient in 0.6 ml acetone and 45 ml formulation solution containing 10.6% Emulsogen EL (Registry number 61791-12-6), 42.2% N-methylpyrrolidone, 42.2% dipropylene glycol monomethyl ether (Registry number 34590-94-8) and 0.2% X-77 (Registry number 11097-66-8). The test plants were then grown in a greenhouse under optimum conditions until, 15 days later for post-emergence and 20 days for pre-emergence, the test was evaluated (100=total damage to plant; 0=no damage to plant). Alopecurus myosuroides (ALOMY), Avena fatua (AVEFA), Lolium perenne (LOLPE), Setaria faberi (SETFA), Digitaria sanguinalis (DIGSA), Echinochloa crus-galli (ECHCG) Post Emergency Activity

[2] = tested on: Echinochloa crus-galli (ECHCG); test: as above; conditions: 360 h, evaluated 15 days after spraying, read-out: herbicidal damage ECHCG (100=total damage to plant; 0=no damage to plant); for pest or weed control at 500 g/ha: rate 500 g/ha
Procedure: as §1

[3] = tested on: Alopecurus myosuroides (ALOMY); test: as above; conditions: 360 h, evaluated 15 days after spraying, read-out: herbicidal damage ALOMY (100=total damage to plant; 0=no damage to plant); for pest or weed control at 500 g/ha: rate 500 g/ha
Procedure: as §1

Setaria faberi (SETFA) [4] = test: as above; conditions: 360 h, evaluated 15 days after spraying, read-out: herbicidal damage SETFA (100=total damage to plant; 0=no damage to plant); for pest or weed control at 500 g/ha: rate 500 g/ha
Procedure: as §1

[5] = tested on: Digitaria sanguinalis (DIGSA); test: as above; conditions: 360 h, evaluated 15 days after spraying, read-out: herbicidal damage DIGSA (100=total damage to plant; 0=no damage to plant); for pest or weed control at 500 g/ha: rate 500 g/ha
Procedure: as §1

Avena fatua (AVEFA) [6] = test: as above; conditions: 360 h, evaluated 15 days after spraying, read-out: herbicidal damage AVEFA (100=total damage to plant; 0=no damage to plant); for pest or weed control at 500 g/ha: rate 500 g/ha
Procedure: as §1

Lolium perenne (LOLPE) [7] = test: Example A pre-emergence herbicidal activity, glasshouse pot test; conditions: 480 h, rate 500 g/ha, evaluated 20 days later, 100=total damage to plant, 0=no damage to plant
Procedure: as §1, with “Pre-Emergence” for “Post Emergency”

[8] = tested on: Echinochloa crus-galli (ECHCG); test: as above; conditions: 480 h, rate 500 g/ha, evaluated 20 days later, 100=total damage to plant, 0=no damage to plant
Procedure: as §1, with “Pre-Emergence” for “Post Emergency”

[9] = tested on: Alopecurus myosuroides (ALOMY); test: as above; conditions: 480 h, rate 500 g/ha, evaluated 20 days later, 100=total damage to plant, 0=no damage to plant
Procedure: as §1, with “Pre-Emergence” for “Post Emergency”

Setaria faberi (SETFA) [10] = test: as above; conditions: 480 h, rate 500 g/ha, evaluated 20 days later, 100=total damage to plant, 0=no damage to plant
Procedure: as §1, with “Pre-Emergence” for “Post Emergency”

[11] = tested on: Digitaria sanguinalis (DIGSA); test: as above; conditions: 480 h, rate 500 g/ha, evaluated 20 days later, 100=total damage to plant, 0=no damage to plant
Procedure: as §1, with “Pre-Emergence” for “Post Emergency”

Avena fatua (AVEFA) [12] = test: as above; conditions: 480 h, rate 500 g/ha, evaluated 20 days later, 100=total damage to plant, 0=no damage to plant
Procedure: as §1, with “Pre-Emergence” for “Post Emergency”

Row | SMILES | pest or weed control at 500 g/ha (Lolium perenne (LOLPE) [1]) [%] | pest or weed control at 500 g/ha [2] [%] | pest or weed control at 500 g/ha [3] [%] | pest or weed control at 500 g/ha (Setaria faberi (SETFA) [4]) [%] | pest or weed control at 500 g/ha [5] [%] | pest or weed control at 500 g/ha (Avena fatua (AVEFA) [6]) [%] | pest or weed control at 500 g/ha (Lolium perenne (LOLPE) [7]) [%] | pest or weed control at 500 g/ha [8] [%] | pest or weed control at 500 g/ha [9] [%] | pest or weed control at 500 g/ha (Setaria faberi (SETFA) [10]) [%] | pest or weed control at 500 g/ha [11] [%] | pest or weed control at 500 g/ha (Avena fatua (AVEFA) [12]) [%] | pest or weed control at 125 g/ha (Lolium perenne (LOLPE) [1]; rate 125 g/ha) [%] | pest or weed control at 125 g/ha ([2]; rate 125 g/ha) [%] | pest or weed control at 125 g/ha ([3]; rate 125 g/ha) [%] | pest or weed control at 125 g/ha (Setaria faberi (SETFA) [4]; rate 125 g/ha) [%] | pest or weed control at 125 g/ha ([5]; rate 125 g/ha) [%] | pest or weed control at 125 g/ha (Avena fatua (AVEFA) [6]; rate 125 g/ha) [%]
1 | CCc1cc(C)cc(CC)c1C1=C(O)CC(CC2OCC(C)(C)CO2)CC1=O (centres unmarked) [Compound A-8] | 80 | 100 | 60 | 70 | 70 | 50 | 100 | 70 | 100 | 70 | 100 | 50 | – | – | – | – | – | –
2 | CCc1cc(C)cc(CC)c1C1=C(O)CC(CC2CCOCC2)CC1=O (centres unmarked) [Compound A-5, 2-(2,6-diethyl-4-methylphenyl)-5-(tetrahydropyran-4-ylmethyl)cyclohexane-1,3-dione] | 90 | 100 | 90 | 100 | 90 | 90 | 100 | 100 | 100 | 100 | 100 | 100 | – | – | – | – | – | –
3 | CCc1cc(C)cc(CC)c1C1=C(O)CC(CC2OCCO2)CC1=O (centres unmarked) [Compound A-6, 2-(2,6-diethyl-4-methylphenyl)-5-([1,3]dioxolan-2-ylmethyl)cyclohexane-1,3-dione] | 80 | 100 | 80 | 80 | 90 | 100 | 70 | 100 | 90 | 80 | 100 | 60 | – | – | – | – | – | –
4 | Cc1ccc(-c2ccc(Cl)cc2)cc1C1=C(O)CC(CC2CCOC2)CC1=O (centres unmarked) [Compound A-2] | 50 | 100 | 70 | 90 | 90 | 40 | 10 | 100 | 20 | 60 | 50 | 40 | – | – | – | – | – | –
5 | CCc1cc(C)cc(CC)c1C1=C(O)CC(CC2OCCCO2)CC1=O (centres unmarked) [Compound A-7] | 90 | 100 | 90 | 80 | 80 | 100 | 100 | 100 | 100 | 80 | 100 | 100 | – | – | – | – | – | –
6 | Cc1cc(C)c(C2=C(O)CC(CC3CCOCC3)CC2=O)c(C)c1 (centres unmarked) [Compound A-9] | 80 | 90 | 80 | 80 | 70 | 70 | 100 | 70 | 100 | 90 | 100 | 60 | – | – | – | – | – | –
7 | CCc1cc(CC)c(C2=C(O)CC(C(C)C3CCOCC3)CC2=O)c(CC)c1 (centres unmarked) [Compound A-12] | 80 | 80 | 80 | 70 | 70 | 80 | 100 | 70 | – | 60 | 70 | 40 | – | – | – | – | – | –
8 | CCc1cc(C)cc(CC)c1C1=C(O)CC(CC2CCOC2)CC1=O (centres unmarked) [Compound A-3] | 80 | 100 | 80 | 80 | 100 | 80 | 100 | 100 | 80 | 100 | 100 | 90 | – | – | – | – | – | –
9 | CCc1cc(C)cc(CC)c1C1=C(O)CC(C(C)C2CCOC2)CC1=O (centres unmarked) [Compound A-18] | – | – | – | – | – | – | 100 | 100 | 90 | 100 | 100 | 100 | 100 | 100 | 100 | 50 | 80 | 90
10 | CCc1ccc(-c2ccc(Cl)cc2)cc1C1=C(O)CC(C(C)C2CCOCC2)CC1=O (centres unmarked) [Compound A-13] | 70 | 100 | 80 | 50 | 90 | 30 | 10 | 30 | 30 | 30 | 30 | 20 | – | – | – | – | – | –
11 | CCc1cc(C)cc(CC)c1C1=C(O)CC(CC2CC[S+]([O-])CC2)CC1=O (centres unmarked) [Compound A-16] | 90 | 70 | 60 | 80 | 100 | 90 | 100 | 100 | 100 | – | 100 | 90 | – | – | – | – | – | –
12 | CCc1cc(C)cc(CC)c1C1=C(O)CC(C(C)C2CCOCC2)CC1=O (centres unmarked) [Compound A-11] | 90 | 100 | 100 | 80 | 90 | 90 | 100 | 70 | 100 | – | – | 100 | – | – | – | – | – | –
